Literature values, collected in patent publication US20050065732A1, “Matrix methods for quantitatively analyzing and assessing the properties of botanical samples” (priority 2001, published 2005).

Assays:
[1] = test system: human umbilical vein endothelial cells (HUVECs)

SMILES: CC(C)=CCC[C@](C)(O[C@@H]1O[C@H](CO)[C@@H](O)[C@H](O)[C@H]1O)[C@H]1CC[C@]2(C)[C@@H]1[C@H](O)C[C@@H]1[C@@]3(C)CC[C@H](O)C(C)(C)[C@@H]3[C@@H](O[C@@H]3O[C@H](CO)[C@@H](O)[C@H](O)[C@H]3O[C@@H]3OC[C@@H](O)[C@H](O)[C@H]3O)C[C@]12C [NR1, notoginsenoside R1]
- PAI-1 antigen synthesis (HUVECs): did not change
- TPA mRNA (HUVECs): increased as much as twofold
- TPA synthesis (HUVECs): dose- and time-dependent increase
- expression of PAI-1-specific mRNA (HUVECs): not significantly affected
- urokinase-type plasminogen activator antigen synthesis (HUVECs): did not change

SMILES: CC(C)(O)[C@@H]1CC[C@](C)([C@H]2[C@@H](O)C[C@@]3(C)[C@@H]4C[C@H](O[C@@H]5O[C@H](CO)[C@@H](O)[C@H](O)[C@H]5O)[C@H]5C(C)(C)[C@@H](O[C@@H]6OC[C@@H](O)[C@H](O)[C@H]6O)CC[C@@]56C[C@@]46CC[C@]23C)O1 [astragaloside IV]
- plasminogen activator inhibitor type I (PAI-1) specific mRNA expression [1]: decreased
- tissue-type plasminogen activator (t-PA) specific mRNA [1]: increased
